Measured values from US10669242B2 (priority 2016, dated 2020).
pIC50: −log10 of the molar value.

Experiments:
[1] = molecular target: T1, C. difficile full-length toxin TcdA (Clostridioides difficile, UniProt P16154); assay: cell-based
T1 construct: C. difficile full-length toxins (TcdA or TcdB); purchased Enzo Life Sciences BML-G140-0050

[2] = molecular target: T2, C. difficile full-length toxin TcdB (Clostridioides difficile, UniProt P18177); assay: cell-based
T2 construct: C. difficile full-length toxins (TcdA or TcdB); purchased EMD Millipore 616377

[3] = test system: C. difficile toxin (TcdA and TcdB, ~1:1); assay: Murine C. difficile toxin model (intrarectal toxin); format: in vivo, C57BL/6 mice; conditions: murine C. difficile toxin model, PO, 50 mg/kg body weight
Protocol: In the following studies, we established a murine C. difficile toxin model with modifications from a published murine model (Hirota, Iablokov et al. 2012). Details of the murine C. difficile toxin model are described in the “Experimental Protocols” (below). C. difficile toxins were isolated from a culture of the C. difficile strain VPI 10463. C. difficile toxins consisted of TcdA and TcdB (˜1:1 ratio of TcdA:TcdB). Respective TcdA and TcdB concentrations were determined by enzyme-linked immunosorbant assay (ELISA). In our mouse model, C. difficile toxins were administered intrarectally to evaluate their pathological effects.
We administered C. difficile toxin (12.5 μg/mouse) via intrarectal instillation into female C57BL/6 mice. Four (4) animals were used in each group. Four (4) hours after the toxin administration, the mice were euthanized. The colons were excised from the animals and washed with phosphate buffered saline (PBS). The colon lengths were measured. Excised colon tissues were stored at −70° C. for chemical analysis of interleukin-1β(IL-1β) and myeloperosidase (MPO) in tissues, which are the hallmarks of colon inflammation. Excised colon tissues were also stored at room temperature in 10% neutral buffered formalin for histopathological analysis.
Using the murine C. difficile toxin model (Example 61), we evaluated the efficacy of Example 6a in reducing the C. difficile toxin activity. In this study, the isolated toxin (12.5 μg) was diluted in 50 μl of PBS and mixed with a 50 μl suspension of Example 6a (10 mg/mL) in 1% carboxymethyl cellulose and 0.5% Tween 80 to achieve a fixed dose of […] of Example 6a (0.5 mg in mice weighing ˜20 g) and C. difficile toxin (12.5 μg). Three (3) animals were used in each group.
In this study, we evaluated the efficacy of Example 6a via different routes of administration (i.e., oral (PO) and intraperitoneal (IP) administrations) in the same murine C. difficile toxin model (Example 61). In both PO and IP dosages, Example 6a was prepared as 5 mg/mL solutions in 20% PEG-400, 0.4% carboxymethyl cellulose and 0.2% Tween 80. Example 6a was administered at a final dose of 50 mg/kg body weight. Three (3) mice were used in each group (i.e., vehicle (control), PO and IP).
Using the murine C. difficile toxin model (Example 63), we further tested the efficacy of four (4) additional compounds (i.e., Example 6a, Example 5ae, Example 4cl, and Example 5al) via PO administration. All of the compounds were dosed orally at 50 mg/kg body weight. In three separate studies a total of three (3) to fourteen (14) mice were used in each group.
We evaluated the efficacy of additional compounds in reducing C. difficile toxicity. Using the PO administration (Example 63), we further tested 30 compounds (Table 34). All of the compounds were dosed orally at 50 mg/kg body weight. Three (3) to fourteen (14) animals were used for each compound. % inhibition was determined by the following formula: […]
An overnight culture of C. difficile strain VPI 10463 (American Type Culture Collection) was grown at 37° C. in Brain-Heart Infusion (BHI) broth using the GasPak EZ Anaerobe Pouch System (Becton Dickinson). 2 mL of the culture was added to 28 mL of phosphate buffered saline (PBS) in a gamma-irradiated, 10,000 molecular weight cut-off, 30-70 ml Slide-A-Lyzer G2 dialysis cassette (Pierce). This cassette was submerged in 1 L of BHI broth in a 2 L beaker and incubated under anaerobic conditions for 5 days at 37° C. The culture was then transferred to a 50 mL conical tube and the cassette was washed with 10 mL of PBS. The combined culture and wash were centrifuged at 2,000 g for 20 minutes to pellet the bacteria and the supernatant was filtered through a 0.2 μm syringe filter. The filtrate was then applied to a 20 mL 150 K molecular weight cut-off concentration column (Pierce) and centrifuged at 2,000 g for 15 minutes. Concentrated supernatant was stored at 4° C. […]

[4] = molecular target: T3, recombinant glucosyltransferase domain of C. difficile Toxin B/TcdB (Clostridioides difficile, UniProt P18177); assay: biochemical
T3 construct: 6-His (C); purchased R&D Systems 6246-GT
T3 sequence (P18177 1-543): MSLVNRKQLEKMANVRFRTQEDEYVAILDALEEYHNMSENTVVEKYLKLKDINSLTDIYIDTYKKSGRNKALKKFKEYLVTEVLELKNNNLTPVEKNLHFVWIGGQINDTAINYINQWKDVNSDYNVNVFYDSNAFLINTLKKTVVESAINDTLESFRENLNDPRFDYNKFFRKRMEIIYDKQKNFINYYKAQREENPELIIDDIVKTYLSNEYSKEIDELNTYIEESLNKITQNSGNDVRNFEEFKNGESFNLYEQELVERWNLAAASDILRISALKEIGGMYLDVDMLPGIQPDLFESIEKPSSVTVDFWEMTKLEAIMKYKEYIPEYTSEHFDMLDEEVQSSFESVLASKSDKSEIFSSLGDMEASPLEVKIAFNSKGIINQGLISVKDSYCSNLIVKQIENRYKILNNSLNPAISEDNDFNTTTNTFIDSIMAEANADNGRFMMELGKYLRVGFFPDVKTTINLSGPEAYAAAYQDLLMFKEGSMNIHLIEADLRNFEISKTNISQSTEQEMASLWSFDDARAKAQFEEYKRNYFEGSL

T1 sequence (P16154 whole entry, looked up): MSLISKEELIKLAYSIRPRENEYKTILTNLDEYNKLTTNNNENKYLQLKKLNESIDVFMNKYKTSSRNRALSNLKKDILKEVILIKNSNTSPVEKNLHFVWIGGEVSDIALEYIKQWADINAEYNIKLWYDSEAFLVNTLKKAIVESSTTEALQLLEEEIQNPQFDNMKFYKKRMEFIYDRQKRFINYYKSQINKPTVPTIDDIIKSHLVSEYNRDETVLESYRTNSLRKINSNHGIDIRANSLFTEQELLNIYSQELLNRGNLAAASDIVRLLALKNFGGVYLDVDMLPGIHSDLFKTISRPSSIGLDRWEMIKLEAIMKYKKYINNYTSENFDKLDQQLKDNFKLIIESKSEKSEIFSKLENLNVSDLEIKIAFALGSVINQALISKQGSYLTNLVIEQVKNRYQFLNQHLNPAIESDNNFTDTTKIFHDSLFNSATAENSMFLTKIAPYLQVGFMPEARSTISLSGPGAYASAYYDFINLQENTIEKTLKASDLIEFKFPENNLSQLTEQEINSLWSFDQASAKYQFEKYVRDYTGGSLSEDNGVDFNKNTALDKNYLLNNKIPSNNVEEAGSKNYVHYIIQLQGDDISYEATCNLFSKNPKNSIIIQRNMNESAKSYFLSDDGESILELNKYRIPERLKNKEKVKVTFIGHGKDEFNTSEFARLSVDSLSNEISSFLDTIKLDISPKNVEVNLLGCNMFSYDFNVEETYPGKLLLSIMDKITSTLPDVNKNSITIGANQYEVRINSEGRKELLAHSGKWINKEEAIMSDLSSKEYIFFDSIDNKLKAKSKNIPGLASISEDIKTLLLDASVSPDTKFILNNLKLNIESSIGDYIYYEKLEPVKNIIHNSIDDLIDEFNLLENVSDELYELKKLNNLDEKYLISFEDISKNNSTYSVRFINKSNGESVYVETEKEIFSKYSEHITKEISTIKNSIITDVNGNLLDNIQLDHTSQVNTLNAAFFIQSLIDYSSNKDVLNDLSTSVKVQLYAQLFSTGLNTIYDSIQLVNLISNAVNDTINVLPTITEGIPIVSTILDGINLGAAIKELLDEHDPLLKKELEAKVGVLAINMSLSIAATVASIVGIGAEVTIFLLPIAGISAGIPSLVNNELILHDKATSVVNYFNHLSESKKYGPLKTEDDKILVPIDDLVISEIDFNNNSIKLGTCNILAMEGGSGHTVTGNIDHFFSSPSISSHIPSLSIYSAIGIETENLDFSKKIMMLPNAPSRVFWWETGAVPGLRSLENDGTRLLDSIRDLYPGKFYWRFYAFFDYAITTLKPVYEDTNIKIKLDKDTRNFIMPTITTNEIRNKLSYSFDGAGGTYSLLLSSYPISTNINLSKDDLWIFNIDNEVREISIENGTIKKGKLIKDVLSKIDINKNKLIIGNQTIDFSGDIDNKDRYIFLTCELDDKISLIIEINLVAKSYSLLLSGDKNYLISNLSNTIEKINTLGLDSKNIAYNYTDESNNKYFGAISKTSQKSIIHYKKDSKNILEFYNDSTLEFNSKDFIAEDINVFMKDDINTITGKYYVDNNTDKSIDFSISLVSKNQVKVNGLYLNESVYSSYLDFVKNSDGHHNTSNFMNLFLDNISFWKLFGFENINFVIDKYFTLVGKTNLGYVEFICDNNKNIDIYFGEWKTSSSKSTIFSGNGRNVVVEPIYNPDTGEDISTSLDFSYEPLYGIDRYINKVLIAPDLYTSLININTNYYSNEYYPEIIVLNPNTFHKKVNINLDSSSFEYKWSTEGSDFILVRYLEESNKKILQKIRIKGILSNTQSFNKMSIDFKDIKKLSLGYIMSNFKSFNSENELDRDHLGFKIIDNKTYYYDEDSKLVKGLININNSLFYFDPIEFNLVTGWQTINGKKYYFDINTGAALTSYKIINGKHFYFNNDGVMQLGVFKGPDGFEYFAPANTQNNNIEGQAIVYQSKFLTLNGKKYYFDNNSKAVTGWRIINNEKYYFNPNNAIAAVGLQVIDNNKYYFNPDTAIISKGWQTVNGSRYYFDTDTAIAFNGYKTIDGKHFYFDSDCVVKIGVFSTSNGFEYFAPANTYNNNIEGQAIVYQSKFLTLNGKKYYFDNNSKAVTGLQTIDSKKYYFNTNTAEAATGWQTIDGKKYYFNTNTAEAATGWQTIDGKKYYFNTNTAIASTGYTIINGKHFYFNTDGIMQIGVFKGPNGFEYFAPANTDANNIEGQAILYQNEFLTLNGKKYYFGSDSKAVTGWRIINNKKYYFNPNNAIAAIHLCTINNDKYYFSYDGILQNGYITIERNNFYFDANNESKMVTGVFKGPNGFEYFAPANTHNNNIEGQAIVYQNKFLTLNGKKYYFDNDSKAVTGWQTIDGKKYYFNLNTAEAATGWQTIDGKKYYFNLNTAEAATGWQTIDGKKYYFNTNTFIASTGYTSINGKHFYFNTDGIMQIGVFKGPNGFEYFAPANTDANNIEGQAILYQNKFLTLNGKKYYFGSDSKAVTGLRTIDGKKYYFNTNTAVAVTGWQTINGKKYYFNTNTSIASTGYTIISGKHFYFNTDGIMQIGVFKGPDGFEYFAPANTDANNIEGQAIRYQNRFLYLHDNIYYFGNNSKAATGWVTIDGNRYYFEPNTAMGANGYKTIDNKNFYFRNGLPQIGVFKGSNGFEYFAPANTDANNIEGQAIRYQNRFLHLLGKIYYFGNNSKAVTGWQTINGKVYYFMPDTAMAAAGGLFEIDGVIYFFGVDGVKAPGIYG

Which results are given for `O=C(Nc1ccc(F)cn1)c1ccc(CN2C(=O)c3ccc(Cl)cc3NC(=O)[C@H]2Cc2ccccn2)cc1` [Example 4a, (R)-4-((8-Chloro-2,5-dioxo-3-(pyridin-2-ylmethyl)-2,3-dihydro-1H-benzo[e][1,4]diazepin-4(5H)-yl)methyl)-N-(5-fluoropyridin-2-yl)benzamide]?
pIC50 [1]: 5.00 to 6.00; pIC50 [2]: > 7.00; IL-1β (% Inhibition) [3]: 30%; MPO (% Inhibition) [3]: 51%; pIC50 [4]: > 7.00

How did the pIC50 [1] turn out when `Cc1cnc2c(c1)CCN2C(=O)c1ccc(CN2C(=O)c3ccc(Cl)cc3NC(=O)[C@H]2Cc2ccccn2)cc1Cl` [Example 4ad, (R)-8-Chloro-4-(3-chloro-4-(5-methyl-2,3-dihydro-1H-pyrrolo[2,3-b]pyridine-1-carbonyl)benzyl)-3-(pyridin-2-ylmethyl)-3,4-dihydro-1H-benzo[e][1,4]diazepine-2,5-dione] was run?
The pIC50 was 6.00 to 7.00.

And the pIC50 [2]?
Its pIC50 is greater than 7.00.

And the “IL-1β (% Inhibition)” value [3]?
Its value is 80%.

What about the “MPO (% Inhibition)” value [3] of the same molecule?
The value was 100%.

And the pIC50 [4]?
Its pIC50 is greater than 7.00.

How did the pIC50 [1] turn out when `COc1cc(CN2C(=O)c3ccc(Cl)cc3NC(=O)[C@H]2Cc2ccccn2)ccc1C(=O)Nc1ccc(C(F)(F)F)cn1` [Example 4au, (R)-4-((8-Chloro-2,5-dioxo-3-(pyridin-2-ylmethyl)-2,3-dihydro-1H-benzo[e][1,4]diazepin-4(5H)-yl)methyl)-2-methoxy-N-(5-(trifluoromethyl)pyridin-2-yl)benzamide] was run?
The pIC50 was less than 5.00.

What about the pIC50 [2] of the same molecule?
Its pIC50 is 6.00 to 7.00.

And the “IL-1β (% Inhibition)” value [3]?
Its value is 40%.

What about the “MPO (% Inhibition)” value [3] of the same molecule?
Its value is 0%.

What about the pIC50 [4] of the same molecule?
The pIC50 was greater than 7.00.

What does the source list for `COc1ccc(NC(=O)c2ccc(CN3C(=O)c4ccc(Cl)cc4NC(=O)[C@H]3Cc3ccccn3)cc2Cl)nc1` [Example 4by, (R)-2-Chloro-4-((8-chloro-2,5-dioxo-3-(pyridin-2-ylmethyl)-2,3-dihydro-1H-benzo[e][1,4]diazepin-4(5H)-yl)methyl)-N-(5-methoxypyridin-2-yl)benzamide]?
pIC50 [1]: 6.00 to 7.00; pIC50 [2]: > 7.00; IL-1β (% Inhibition) [3]: 46%; MPO (% Inhibition) [3]: 1%; pIC50 [4]: > 7.00

Which results are given for `Cc1ccc(NC(=O)c2ccc(CN3C(=O)c4ccc(Cl)cc4NC(=O)[C@H]3Cc3ccccn3)cc2Cl)nc1` [Example 4cb, (R)-2-Chloro-4-((8-chloro-2,5-dioxo-3-(pyridin-2-ylmethyl)-2,3-dihydro-1H-benzo[e][1,4]diazepin-4(5H)-yl)methyl)-N-(5-methylpyridin-2-yl)benzamide]?
pIC50 [1]: 6.00 to 7.00; pIC50 [2]: > 7.00; IL-1β (% Inhibition) [3]: 74%; MPO (% Inhibition) [3]: 99%; pIC50 [4]: > 7.00

How did the pIC50 [1] turn out when `COc1cnc(NC(=O)c2ccc(CN3C(=O)c4ccc(Cl)cc4NC(=O)[C@H]3Cc3ccccn3)cc2Cl)cn1` [Example 4ci, (R)-2-Chloro-4-((8-chloro-2,5-dioxo-3-(pyridin-2-ylmethyl)-2,3-dihydro-1H-benzo[e][1,4]diazepin-4(5H)-yl)methyl)-N-(5-methoxypyrazin-2-yl)benzamide] was run?
Its pIC50 is 5.00 to 6.00.

And the pIC50 [2]?
The pIC50 was 6.00 to 7.00.

What about the “IL-1β (% Inhibition)” value [3] of the same molecule?
The value was 86%.

What about the “MPO (% Inhibition)” value [3] of the same molecule?
The value was 19%.

What about the pIC50 [4] of the same molecule?
The pIC50 was greater than 7.00.

With `Cc1ccc(NC(=O)c2ccc(CN3C(=O)c4ccc(Cl)cc4NC(=O)[C@H]3Cc3ccccn3)cc2C)nc1` [Example 4ck, (R)-4-((8-Chloro-2,5-dioxo-3-(pyridin-2-ylmethyl)-2,3-dihydro-1H-benzo[e][1,4]diazepin-4(5H)-yl)methyl)-2-methyl-N-(5-methylpyridin-2-yl)benzamide] as the molecule, how does the pIC50 [1] read?
The pIC50 was 6.00 to 7.00.

And the pIC50 [2]?
The pIC50 was greater than 7.00.

What about the “IL-1β (% Inhibition)” value [3] of the same molecule?
Its value is 82%.

And the “MPO (% Inhibition)” value [3]?
The value was 79%.

What about the pIC50 [4] of the same molecule?
Its pIC50 is greater than 7.00.

How did the pIC50 [1] turn out when `COc1cc(CN2C(=O)c3ccc(Cl)cc3NC(=O)[C@H]2Cc2ccccn2)ccc1C(=O)Nc1ccc(C)cn1` [Example 4cm, (R)-4-((8-Chloro-2,5-dioxo-3-(pyridin-2-ylmethyl)-2,3-dihydro-1H-benzo[e][1,4]diazepin-4(5H)-yl)methyl)-2-methoxy-N-(5-methylpyridin-2-yl)benzamide] was run?
Its pIC50 is less than 5.00.

And the pIC50 [2]?
Its pIC50 is 6.00 to 7.00.

And the “IL-1β (% Inhibition)” value [3]?
Its value is 49%.

And the “MPO (% Inhibition)” value [3]?
The value was 35%.

And the pIC50 [4]?
The pIC50 was greater than 7.00.

`Cc1cnc(NC(=O)c2ccc(CN3C(=O)c4ccc(Cl)cc4NC(=O)[C@H]3Cc3ccccn3)cc2Cl)cn1` [Example 5aa, (R)-2-Chloro-4-((8-chloro-2,5-dioxo-3-(pyridin-2-ylmethyl)-2,3-dihydro-1H-benzo[e][1,4]diazepin-4(5H)-yl)methyl)-N-(5-methylpyrazin-2-yl)benzamide] was tested. Which pIC50 [1] did it give?
The pIC50 was 5.00 to 6.00.

What about the pIC50 [2] of the same molecule?
Its pIC50 is 6.00 to 7.00.

What about the “IL-1β (% Inhibition)” value [3] of the same molecule?
Its value is 63%.

And the “MPO (% Inhibition)” value [3]?
Its value is 50%.

What about the pIC50 [4] of the same molecule?
The pIC50 was greater than 7.00.

`COc1cnc(NC(=O)c2ccc(CN3C(=O)c4ccc(Cl)cc4NC(=O)[C@H]3Cc3ccccn3)cc2Cl)nc1` [Example 5ab, (R)-2-Chloro-4-((8-chloro-2,5-dioxo-3-(pyridin-2-ylmethyl)-2,3-dihydro-1H-benzo[e][1,4]diazepin-4(5H)-yl)methyl)-N-(5-methoxypyrimidin-2-yl)benzamide] was tested. Which pIC50 [1] did it give?
Its pIC50 is 5.00 to 6.00.

And the pIC50 [2]?
Its pIC50 is greater than 7.00.

And the “IL-1β (% Inhibition)” value [3]?
The value was 100%.

What about the “MPO (% Inhibition)” value [3] of the same molecule?
Its value is 100%.

And the pIC50 [4]?
The pIC50 was greater than 7.00.

`COc1cnc(NC(=O)c2ccc(CN3C(=O)c4ccc(Cl)cc4NC(=O)[C@H]3Cc3ccccn3)cc2C)cn1` [Example 5af, (R)-4-((8-Chloro-2,5-dioxo-3-(pyridin-2-ylmethyl)-2,3-dihydro-1H-benzo[e][1,4]diazepin-4(5H)-yl)methyl)-N-(5-methoxypyrazin-2-yl)-2-methylbenzamide] was tested. Which pIC50 [1] did it give?
The pIC50 was 5.00 to 6.00.

And the pIC50 [2]?
The pIC50 was 6.00 to 7.00.

And the “IL-1β (% Inhibition)” value [3]?
Its value is 100%.

And the “MPO (% Inhibition)” value [3]?
The value was 100%.

What about the pIC50 [4] of the same molecule?
The pIC50 was greater than 7.00.

How did the pIC50 [1] turn out when `Cc1cnc(NC(=O)c2ccc(CN3C(=O)c4ccc(Cl)cc4NC(=O)[C@H]3Cc3ccccn3)cc2C)cn1` [Example 5ah, (R)-4-((8-Chloro-2,5-dioxo-3-(pyridin-2-ylmethyl)-2,3-dihydro-1H-benzo[e][1,4]diazepin-4(5H)-yl)methyl)-2-methyl-N-(5-methylpyrazin-2-yl)benzamide] was run?
Its pIC50 is 5.00 to 6.00.

What about the pIC50 [2] of the same molecule?
Its pIC50 is 6.00 to 7.00.

And the “IL-1β (% Inhibition)” value [3]?
Its value is 91%.

And the “MPO (% Inhibition)” value [3]?
Its value is 65%.

And the pIC50 [4]?
The pIC50 was greater than 7.00.

Which “IL-1β (% Inhibition)” value [3] does the source give for `O=C(c1ccc(CN2C(=O)c3ccc(Cl)cc3NC(=O)[C@H]2Cc2ccccn2)cc1)c1c[nH]c2cccnc12` [Example 32a, 4-(4-(1H-Pyrrolo[3,2-b]pyridine-3-carbonyl)benzyl)-8-chloro-3-(pyridin-2-ylmethyl)-3,4-dihydro-1H-benzo[e][1,4]diazepine-2,5-dione] here?
The value was 72%.

What about the “MPO (% Inhibition)” value [3] of the same molecule?
Its value is 76%.

And the pIC50 [4]?
Its pIC50 is greater than 7.00.

With `O=C(c1ccc(CN2C(=O)c3ccc(Cl)cc3NC(=O)[C@H]2Cc2ccccn2)cc1)c1cccn2ccnc12` [Example 34a, (R)-8-Chloro-4-(4-(imidazo[1,2-α]pyridine-8-carbonyl)benzyl)-3-(pyridin-2-ylmethyl)-3,4-dihydro-1H-benzo[e][1,4]diazepine-2,5-dione] as the molecule, how does the pIC50 [1] read?
The pIC50 was less than 5.00.

What about the pIC50 [2] of the same molecule?
The pIC50 was 6.00 to 7.00.

What about the pIC50 [4] of the same molecule?
The pIC50 was greater than 7.00.

`C[C@@H]1C(=O)Nc2cc(Cl)ccc2C(=O)N1Cc1ccc(C(=O)Nc2ccc(C(F)(F)F)cn2)c(-c2ccc3c(c2)OCO3)c1` [Example 54a] was tested. Which pIC50 [4] did it give?
Its pIC50 is 5.00 to 6.00.
